Peptide text beside a SMILES is read from it.
Tested on: Klebsiella pneumoniae
Assay: experimental infection with Klebsiella pneumoniae in the mouse
Format: in vivo
Conditions: i.v.

CC[C@H](C)[C@H](NC(=O)[C@@H]1CCCN1C(=O)[C@H](CCC(=O)O)NC(=O)[C@@H](N)C(C)C)C(=O)N1CCC[C@H]1C(=O)N[C@@H](Cc1ccc(O)cc1)C(=O)O [hexapeptide of formula (I), Val-Glu-Pro-Ile-Pro-Tyr] (H-VEPIPY-OH)
dose from which remarkable activity against experimental infection is exhibited: ≥ 0.05 mg/kg
